Counter-ions that a name gives are not always drawn.
What was measured:
EP1 receptors [1] = biological target: T1, EP1 receptors (Homo sapiens, UniProt P34995); test: Binding assay for the human prostanoid EP1 receptor (competition with [3H]-PGE2); design: expressed in transfected cells; host or cells: CHO-K1 cells, membrane fraction; conditions: [3H]-PGE2 competition; averages of a number of experiments; read-out: pIC50 value, binding assay for the human prostanoid EP1 receptor (converted)
T1 sequence (P34995 1-402): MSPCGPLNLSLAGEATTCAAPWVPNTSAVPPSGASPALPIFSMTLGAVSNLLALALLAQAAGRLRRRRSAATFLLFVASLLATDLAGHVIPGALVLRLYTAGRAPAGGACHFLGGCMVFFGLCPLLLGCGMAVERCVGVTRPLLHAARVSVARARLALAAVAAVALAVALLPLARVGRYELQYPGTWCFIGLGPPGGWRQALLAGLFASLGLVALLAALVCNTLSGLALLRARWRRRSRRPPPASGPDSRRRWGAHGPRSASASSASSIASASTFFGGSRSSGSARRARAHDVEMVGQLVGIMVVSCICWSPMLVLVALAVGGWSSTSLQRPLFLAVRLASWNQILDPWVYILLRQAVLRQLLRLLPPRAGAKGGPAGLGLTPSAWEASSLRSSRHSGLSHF
Outline: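 Competition against 3 nM (final) tritiated PGE2 at 30° C for 30 min, pH 6 MES assay buffer, using membranes of stably transfected CHO-K1 cells. Filter-retained counts by scintillation; nonlinear curve fitting gives concentration inhibiting 50% of specific binding.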

EP1 receptors [2] = biological target: T1, EP1 receptors; test: human EP1 calcium mobilisation assay (CHO-K1 cells, FLIPR, PGE2); type: cell-based; design: expressed in transfected cells; host or cells: CHO-K1 cells, pCIN vector; conditions: free bases or sodium salts; averages of a number of experiments; read-out: functional pKi value, human EP1 calcium mobilisation assay (converted)
Experimental: Briefly, the antagonist properties of compounds are assessed by their ability to inhibit the mobilisation of intracellular calcium ([Ca^2+]i) in response to activation of EP1 or EP3 receptors by the natural agonist hormone prostaglandin E2 (PGE2). Increasing concentrations of antagonist reduce the amount of calcium that a given concentration of PGE2 can mobilise. The net effect is to displace the PGE2 concentration-effect curve to higher concentrations of PGE2. The amount of calcium produced is assessed using a calcium-sensitive fluorescent dye such as Fluo-4, AM and a suitable instrument such as a Fluorimetric Imaging Plate Reader (FLIPR). Increasing amounts of [Ca^2+]i produced by receptor activation increase the amount of fluorescence produced by the dye and give rise to an increasing signal. The signal may be detected using the FLIPR instrument and the data generated may be analysed with suitable curve-fitting software.
The human EP1 or EP3 calcium mobilisation assay (hereafter referred to as ‘the calcium assay’) utilises Chinese hamster ovary-K1 (CHO-K1) cells into which a stable (pCIN; BioTechniques 20 (1996): 102-110) vector containing either EP1 or EP3 cDNA has previously been transfected. Cells are cultured in suitable flasks containing culture medium such as DMEM:F-12 supplemented with 10% v/v foetal calf serum, 2 mM L-glutamine, 0.25 mg/ml geneticin, 100 μM flurbiprofen and 10 µg/ml puromycin. For assay, cells are harvested using a proprietary reagent that dislodges cells such as Versene. Cells are re-suspended in a suitable quantity of fresh culture media for introduction into a 384-well plate. Following incubation for 24 hours at 37° C. the culture media is replaced with a medium containing Fluo-4 and the detergent pluronic acid, and a further incubation takes place. Concentrations of compounds are then added to the plate in order to construct concentration-effect curves. This may be performed on the FLIPR in order to assess the agonist properties of the compounds. Concentrations of PGE2 are then added to the plate in order to assess the antagonist properties of the compounds. The data so generated may be analysed by means of a computerised curve-fitting routine. The concentration of compound that elicits a half-maximal inhibition of the calcium mobilisation induced by PGE2 (pIC50) may then be estimated.

Row | SMILES | IC50 (EP1 receptors [1]) [nM] | Ki (EP1 receptors [2]) [nM]
1 | CC(C(=O)O)c1csc(-c2cc(Cl)ccc2OCc2ccccc2)n1 (stereo not drawn) [Example 46, Sodium 2-(2-{5-chloro-2-[(phenylmethyl)oxy]phenyl}-1,3-thiazol-4-yl)propanoate] | ≤ 1000 | < 1000
2 | CC(C(=O)O)c1csc(-c2cc(Br)ccc2OCc2ccccc2)n1 (stereo not drawn) [Example 47, Sodium 2-(2-{5-bromo-2-[(phenylmethyl)oxy]phenyl}-1,3-thiazol-4-yl)propanoate] | ≤ 1000 | < 1000
3 | CC(C)(C(=O)O)c1csc(-c2cc(Cl)ccc2OCc2ccccc2)n1 [Example 48, Sodium 2-(2-{5-chloro-2-[(phenylmethyl)oxy]phenyl}-1,3-thiazol-4-yl)-2-methylpropanoate] | ≤ 1000 | < 1000
4 | CC(C)(C(=O)O)c1csc(-c2cc(Br)ccc2OCc2ccccc2)n1 [Example 49, Sodium 2-(2-{5-bromo-2-[(phenylmethyl)oxy]phenyl}-1,3-thiazol-4-yl)-2-methylpropanoate] | ≤ 1000 | < 1000
5 | CC(c1nc(C(=O)O)cs1)c1cc(Cl)ccc1OCc1ccccc1 (stereo not drawn) [Example 50] | ≤ 1000 | < 1000
6 | O=C(O)Cc1coc(-c2cc(Cl)ccc2OCc2ccc(F)cc2F)n1 [Example 79, [2-(5-chloro-2-{[(2,4-difluorophenyl)-methyl]oxy}phenyl)-1,3-oxazol-4-yl]acetic acid] | ≤ 1000 | > 1000
7 | O=C(O)Cc1coc(-c2cc(Cl)ccc2OCc2c(F)cc(F)cc2F)n1 [Example 80, [2-(5-chloro-2-{[(2,4,6-trifluorophenyl)methyl]oxy}phenyl)-1,3-oxazol-4-yl]acetic acid] | ≤ 1000 | > 1000
8 | O=C(O)Cc1coc(-c2cc(Cl)ccc2OCc2ccc(F)cc2Cl)n1 [Example 81, [2-(5-chloro-2-{[(2-chloro-4-fluorophenyl)methyl]oxy}phenyl)-1,3-oxazol-4-yl]acetic acid] | ≤ 1000 | > 1000
9 | O=C(O)c1nc(Cc2cc(Cl)ccc2OCc2ccc(Cl)cc2)cs1 [Example 86, Sodium 4-[(5-chloro-2-{[(4-chlorophenyl)methyl]-oxy}phenyl)methyl]-1,3-thiazole-2-carboxylate] | ≤ 31.6 | –
10 | O=C(O)c1nc(Cc2cc(Cl)ccc2OCc2ccc(F)cc2Cl)cs1 [Example 87, Sodium 4-[(5-chloro-2-{[(2-chloro-4-fluorophenyl)methyl]oxy}-phenyl)methyl]-1,3-thiazole-2-carboxylate] | ≤ 31.6 | –
11 | O=C(O)c1nc(Cc2cc(Cl)ccc2OCc2c(F)ccc(F)c2F)cs1 [Example 88, Sodium 4-[(5-chloro-2-{[(2,3,6-trifluorophenyl)methyl]-oxy}phenyl)methyl]-1,3-thiazole-2-carboxylate] | ≤ 1000 | –
12 | O=C(O)c1nc(Cc2cc(Cl)ccc2OCc2cc(F)c(F)cc2F)cs1 [Example 89, Sodium 4-[(5-chloro-2-{[(2,4,5-trifluorophenyl)methyl]-oxy}phenyl)methyl]-1,3-thiazole-2-carboxylate] | ≤ 31.6 | –
13 | NC(=O)c1csc(Cc2cc(Cl)ccc2OCc2ccccc2)n1 [Example 90, 2-({5-Chloro-2-[(phenylmethyl)oxy]phenyl}methyl)-1,3-thiazole-4-carboxamide] | ≤ 1000 | –
14 | O=C(Nc1ccccc1)c1csc(Cc2cc(Cl)ccc2OCc2ccccc2)n1 [Example 91, 2-({5-Chloro-2-[(phenylmethyl)oxy]phenyl}methyl)-N-phenyl-1,3-thiazole-4-carboxamide] | ≤ 1000 | > 1000
15 | O=C(NCc1ccccc1)c1csc(Cc2cc(Cl)ccc2OCc2ccccc2)n1 [Example 92, 2-({5-Chloro-2-[(phenylmethyl)oxy]phenyl}methyl)-N-(phenylmethyl)-1,3-thiazole-4-carboxamide] | ≤ 1000 | > 1000
16 | CC(C)CNC(=O)c1csc(Cc2cc(Cl)ccc2OCc2ccccc2)n1 [Example 93, 2-({5-Chloro-2-[(phenylmethyl)oxy]phenyl}methyl)-N-(2-methylpropyl)-1,3-thiazole-4-carboxamide] | ≤ 1000 | > 1000
17 | O=C(NCc1ccccn1)c1csc(Cc2cc(Cl)ccc2OCc2ccccc2)n1 [Example 94, 2-({5-Chloro-2-[(phenylmethyl)oxy]phenyl}methyl)-N-(2-pyridinylmethyl)-1,3-thiazole-4-carboxamide] | ≤ 1000 | < 1000
18 | O=C(NS(=O)(=O)c1ccccc1)c1csc(Cc2cc(Cl)ccc2OCc2ccccc2)n1 [Example 100, 2-({5-Chloro-2-[(phenylmethyl)oxy]phenyl}methyl)-N-(phenylsulfonyl)-1,3-thiazole-4-carboxamide] | ≤ 31.6 | –
19 | Clc1ccc(OCc2ccccc2)c(Cc2nc(-c3nnn[nH]3)cs2)c1 [Example 109, 5-[2-({5-Chloro-2-[(phenylmethyl)oxy]phenyl}methyl)-1,3-thiazol-4-yl]-1H-tetrazole] | ≤ 31.6 | –
20 | O=C1CN(Cc2ccc(NC(=O)c3csc(Cc4cc(Cl)ccc4OCc4ccccc4)n3)cc2)CCN1 [Example 122, 2-({5-Chloro-2-[(phenylmethyl)oxy]phenyl}-methyl)-N-{4-[(3-oxo-1-piperazinyl)methyl]phenyl}-1,3-thiazole-4-carboxamidehydrochloride] | ≤ 31.6 | –
21 | CC(C)COc1ccc(Cl)cc1Cc1nc(-c2nc3ccc(CN4CCCC4)cc3[nH]2)cs1 [Example 123, 2-[2-({5-Chloro-2-[(2-methylpropyl)oxy]phenyl}-methyl)-1,3-thiazol-4-yl]-5-(1-pyrrolidinylmethyl)-1H-benzimidazole hydrochloride] | ≤ 31.6 | –
22 | Clc1ccc(OCc2ccccc2)c(Cc2nc(-c3nc4ccc(Cl)nc4[nH]3)cs2)c1 [Example 138, 5-Chloro-2-[2-({5-chloro-2-[(phenylmethyl)oxy]phenyl}methyl)-1,3-thiazol-4-yl]-1H-imidazo[4,5-b]pyridinehydrochloride] | ≤ 31.6 | –
23 | Clc1ccc(OCc2ccccc2)c(Cc2nc(-c3nnc[nH]3)cs2)c1 [Example 156, 3-[2-({5-Chloro-2-[(phenylmethyl)oxy]phenyl}methyl)-1,3-thiazol-4-yl]-1H-1,2,4-triazole] | ≤ 1000 | –
24 | CC(C)COc1ccc(Cl)cc1Cc1nc(-c2nnc[nH]2)cs1 [Example 157, 3-[2-({5-Chloro-2-[(2-methyl-propyl)oxy]-phenyl}methyl)-1,3-thiazol-4-yl]-1H-1,2,4-triazole] | ≤ 1000 | –
25 | CC(C)(C)OC(=O)Nc1coc(Cc2cc(Cl)ccc2OCc2ccccc2)n1 [Example 161, 1,1-Dimethylethyl [2-({5-chloro-2-[(phenylmethyl)oxy]phenyl}methyl)-1,3-oxazol-4-yl]carbamate] | > 1000 | –
26 | CC(C)COc1ccc(Cl)cc1Cc1nc(-c2nc3ccccc3[nH]2)co1 [Example 162, 2-[2-({5-Chloro-2-[(2-methylpropyl)oxy]phenyl}methyl)-1,3-oxazol-4-yl]-1H-benzimidazole hydrochloride] | ≤ 31.6 | –
27 | CC(C)COc1ccc(Cl)cc1Cc1nc(-c2nc3cc(N4CCN(C)CC4)ccc3[nH]2)co1 [Example 163, 2-[2-({5-Chloro-2-[(2-methylpropyl)oxy]phenyl}methyl)-1,3-oxazol-4-yl]-5-(4-methyl-1-piperazinyl)-1H-benzimidazoletrihydrochloride] | ≤ 31.6 | –

From patent publication US20080207708A1, “Oxazole and Thiazole Compounds and Their Use in the Treatment of Pge2 Mediated Disorders” (GLAXO GROUP LIMITED, priority 2005, published 2008)
